Converted amounts (≈) assume the structure as drawn. “And” between values parts separate entries of the source, which are not always exact repeats. Identical values can stand only once.
Test system: HIV-1 isolates IIIB and/or RF in MT-2 cells
Assay: SRI primary anti-HIV screen, MTT assay of inhibition of HIV-induced cell killing in MT2 cells
Format: cell-based
Conditions: for SRI MT2 IC50: MT2 cells; for IC50: Human immunodeficiency virus 1, IIIB, MT2, read-out: SRI MT2 IC50 ng/ml, MT2 cells
Text: I. Primary Drug Screening of Anti-HIV Compounds at Southern Research Institute (SRI) (Results recorded in Table 1 are designated “SRI CEM (ng/ml)” or “SRI MT2 (ng/ml)”)
A. Principle of MTT Assay:
SRI has an established program for the primary antiviral analysis of compounds in microtiter assays which measures the ability of a selected compound to inhibit HIV-induced cell killing. This assay involves the conversion of the tetrazolium dye MTT to a colored formazan product by mitochondrial enzymes in metabolically active cells. This assay system is used at SRI to screen over 30,000 compounds per year. Briefly, the assay involves the infection of CEM or MT2 cells in round bottom 96-well plates. The compound of interest is added just prior to infection. Following 6 days of incubation at 37° C. the plates are stained with MTT. The results of the assay are quantitated spectrophotometrically on a Molecular Devices Vmax plate reader. The data are analyzed by linear regression utilizing an in-house software program to calculate antiviral activity (IC25, IC50, IC95) and toxicity (TC25, TC50, TC95) as well as other values.
Primary antiviral assays are routinely performed in CEM or MT-2 cells.
B. Standard Screening Assays in CEM and MT-2 Cells
1. Compound dilution and delivery to the plates
Drugs are solubilized in the appropriate vehicle such as distilled water or DMSO if necessary. Latex gloves, lab coats and masks are used during all phases of the handling process to prevent exposure to potentially harmful agents. The drug is prepared at the appropriate concentration and stored at −20° C. until used by the screening laboratory. The first dilution of each compound is made in a dilution tube with medium to yield a concentration two-fold that of the highest test concentration. Sterile titer tubes are then used to make serial one half-log dilutions of each compound. Following drug dilution, the diluted compound is added to the appropriate well of a 96-well microtiter plate. […] When testing includes only six dilutions, two drugs can be assayed on a single microtiter plate. The drugs are added to the plate in a final volume of 100 microliters.
During the time the drug dilutions are prepared, cells are washed and counted. Viability is monitored by trypan blue dye exclusion and assays are not performed if the viability falls below 90%. Cells are maintained in an exponential growth phase and are split 1:2 on the day prior to assay to assure exponential growth rate.
For the primary screen, the cell lines utilized are CEM and MT-2. Unless otherwise indicated, the medium used is RPMI 1640 with 10% heat-inactivated fetal calf serum (FBS), glutamine and antibiotics.
Cells are propagated at 37° C. in an atmosphere of 5% CO2 in air. The virus employed for this work is HIV-1 isolates IIIB and/or RF, which are prepared by an acute infection process.
Briefly, virus-infected cells are pelleted on a daily basis beginning at three days post-infection until the virus has killed all of the cells in the culture. Reverse transcriptase activity and p24 ELISA are used to identify pools with the greatest amout of virus.
These 24-hour harvests are pooled, filtered and frozen at −90° C. Prior to use in the assay, the infectious pool of virus is titered on all available cell lines in order to determine the amount of virus required in the antiviral assay.
In general, pools produced by the acute infection method require the addition of one microliter of infectious virus per well resulting in the screening of drugs at a multiplicity of infection of 0.01. In this manner, enough virus is prepared and frozen to complete over one thousand microtiter plates, allowing the testing of up to two thousand compounds from a single stock of infectious virus. The use of a single stock of virus for a long period of testing has very favorable effects on the repeatability of the assay systems. […]

Compound | SRI MT2 IC50 | IC50
CC(C)(C)NC(=O)C1CC2CCCCC2CN1CC(O)C(Cc1ccccc1)NC(=O)c1c(Cl)ccc(O)c1Cl (stereo not drawn) [Example 17, [3S-(3R*,4aR*,8aR*,2′S*,3′R*)]-2-[2′-Hydroxy-3′-phenylmethyl-4′-aza-5′-oxo-5′-(2″,6″-dichloro-3″-hydroxyphenyl)pentyl] decahydroisoquinoline-3-N-t-butylcarboxamide] | 8.99 µg/mL and 5.39 µg/mL | –
CC(C)(C)NC(=O)C1CC2CCCCC2CN1CC(O)C(Cc1ccccc1)NC(=O)c1cccnc1Cl (stereo not drawn) [Example 2, [3S-(3R*,4aR*,8aR*,2′S*,3′R*)]-2-[2′-Hydroxy-3′-phenylmethyl-4′-aza-5′-oxo-5′-(2″-chloro-pyrid-3″-yl)pentyl] decahydroisoquinoline-3-N-t-butylcarboxamide] | 1.63 µg/mL | 1580 ng/mL (≈ 2.92 µM)
Cc1c(O)cccc1C(=O)N[C@@H](CSc1ccc2ccccc2c1)[C@H](O)CN1CCCC[C@H]1C(=O)NC(C)(C)C [Example 25, [2S-(2R*,2′S*,3′S*)]-1-[2′-Hydroxy-3′-(naphth-2-ylthiomethyl-4′-aza-5′-oxo-5′-(2″-methyl-3″-hydroxyphenyl)pentyl]piperidine-2-N-t-butylcarboxamide] | – | 169 ng/mL (≈ 0.3 µM)
Cc1c(O)cccc1C(=O)NC(Cc1ccccc1)C(O)CN1CC2CCCCC2CC1C(=O)NC(C)(C)C (stereo not drawn) [Example 12, [3S-(3R*,4aR*,8aR*,2′S*,3′R*)]-2-[2′-Hydroxy-3′-phenylmethyl-4′-aza-5′-oxo-5′-(2″-methyl-3″-hydroxyphenyl)pentyl] decahydroisoquinoline-3-N-t-butylcarboxamide] | 0.0243 µg/mL | –
CC(C)(C)NC(=O)C1CC2CCCCC2CN1CC(O)C(Cc1ccccc1)NC(=O)c1ccccc1C(F)(F)F (stereo not drawn) [Example 15, [3S-(3R*,4aR*,8aR*,2′S*,3′R*)]-2-[2′-Hydroxy-3′-phenylmethyl-4′-aza-5′-oxo-5′-(2″-trifluoromethylphenyl)pentyl] decahydroisoquinoline-3-N-t-butylcarboxamide] | 1.47 µg/mL | 1680 ng/mL (≈ 2.93 µM)
Cc1c(O)cccc1C(=O)NC(Cc1ccccc1)C(O)CN1CC2CCCCC2CC1C(=O)NC(C)(C)C (stereo not drawn) [Example 23, [3S-(3R*,4aR*,8aR*,2′S*,3′R*)]-2-[2′-Hydroxy-3′-phenylmethyl-4′-aza-5′-oxo-5′-(2″-methyl-3″-hydroxyphenyl)pentyl] decahydroisoquinoline-3-N-t-butylcarboxamide] | 0.00627 µg/mL | –
CC(C)c1c(O)cccc1C(=O)NC(Cc1ccccc1)C(O)CN1CC2CCCCC2CC1C(=O)NC(C)(C)C (stereo not drawn) [Example 20, [3S-(3R*,4aR*,8aR*,2′S*,3′R*)]-2-[2′-Hydroxy-3′-phenylmethyl-4′-aza-5′-oxo-5′-(2″-iospropyl-3″-hydroxyphenyl)pentyl] decahydroisoquinoline-3-N-t-butylcarboxamide] | – | 144 ng/mL (≈ 0.255 µM)
Cc1c(O)cccc1C(=O)N[C@@H](Cc1ccccc1)[C@H](O)CN1CCN(Cc2cccnc2)C[C@H]1C(=O)NC(C)(C)C [Example 26, [2S-(2R*,2′S*,3′R*)]-1-[2′-Hydroxy-3′-phenylmethyl-4′-aza-5′-oxo-5′-(2″-methyl-3″-hydroxyphenyl)pentyl]-4-(pyrid-3′″-ylmethyl) piperazine-2-N-t-butylcarboxamide] | – | 49 ng/mL (≈ 0.0854 µM)
CCCCc1c(O)cccc1C(=O)NC(Cc1ccccc1)C(O)CN1CC2CCCCC2CC1C(=O)NC(C)(C)C (stereo not drawn) [Example 21, [3S-(3R*,4aR*,8aR*,2′S*,3′R*)]-2-[2′-Hydroxy-3′-phenylmethyl-4′-aza-5′-oxo-5′-(2″-butyl-3′″-hydroxyphenyl)pentyl] decahydroisoquinoline-3-N-t-butylcarboxamide] | – | 427 ng/mL (≈ 0.739 µM)
Cc1c(O)cccc1C(=O)NC(CSc1ccc2ccccc2c1)C(O)CN1CC2CCCCC2CC1C(=O)NC(C)(C)C (stereo not drawn) [Example 24, [3S-(3R*,4aR*,8aR*,2′S*,3′R*)]-2-[2′-Hydroxy-3′-(naphth-2-ylthiomethyl)-4′-aza-5′-oxo-5′-(2″-methyl-3″-hydroxyphenyl)pentyl] decahydroisoquinoline-3-N-t-butylcarboxamide] | 0.0464 µg/mL | 41.4 ng/mL (≈ 0.067 µM)
CC(C)(C)NC(=O)C1CC2CCCCC2CN1CC(O)C(Cc1ccccc1)NC(=O)c1ccc[n+]([O-])c1 (stereo not drawn) [Example 5, [3S-(3R*,4aR*,8aR*,2′S*,3′R*)]-2-[2′-Hydroxy-3′-phenylmethyl-4′-aza-5′-oxo-5′-(pyrid-3″yl-N-oxidyl)pentyl] decahydroisoquinoline-3-N-t-butylcarboxamide] | 5.03 µg/mL | 7800 ng/mL (≈ 14.9 µM)
CCc1c(O)cccc1C(=O)NC(Cc1ccccc1)C(O)CN1CC2CCCCC2CC1C(=O)NC(C)(C)C (stereo not drawn) [Example 3, [3S-(3R*,4aR*,8aR*,2′S*,3′R*)]-2-[2′-Hydroxy-3′-phenylmethyl-4′-aza-5′-oxo-5′-(2″-ethyl-3″-hydroxyphenyl)pentyl] decahydroisoguinoline-3-N-t-butylcarboxamide] | 0.0215 µg/mL | 21.3 ng/mL (≈ 0.0387 µM)
CC(C)(C)NC(=O)C1CC2CCCCC2CN1CC(O)C(Cc1ccccc1)NC(=O)c1cccc(O)c1Cl (stereo not drawn) [Example 11, [3S-(3R*,4aR*,8aR*,2′S*,3′R*)]-2-[2′-Hydroxy-3′-phenylmethyl-4′-aza-5′-oxo-5′-(2″-chloro-3″-hydroxyphenyl)pentyl] decahydroisoquinoline-3-N-t-butylcarboxamide] | 0.387 µg/mL | 649 ng/mL (≈ 1.17 µM)
CCCc1c(O)cccc1C(=O)NC(Cc1ccccc1)C(O)CN1CC2CCCCC2CC1C(=O)NC(C)(C)C (stereo not drawn) [Example 22, [3S-(3R*,4aR*,8aR*,2′S*,3′R*)]-2-[2′-Hydroxy-3′-phenylmethyl-4′-aza-5′-oxo-5′-(2″-propyl-3″-hydroxyphenyl)pentyl] decahydroisoquinoline-3-N-t-butylcarboxamide] | – | 53 ng/mL (≈ 0.094 µM)
Cc1c(N)cccc1C(=O)NC(Cc1ccccc1)C(O)CN1CC2CCCCC2CC1C(=O)NC(C)(C)C (stereo not drawn) [Example 18, [3S-(3R*,4aR*,8aR*,2′S*,3′R*)]-2-[2′-Hydroxy-3′-phenylmethyl-4′-aza-5′-oxo-5′-(2″-methyl-3″-aminophenyl)pentyl] decahydroisoquinoline-3-N-t-butylcarboxamide] | 0.232 µg/mL | 254 ng/mL (≈ 0.475 µM)
[3S-(3R*,4aR*,8aR*,2′S*,3′S*)]-2-[2′-Hydroxy-3′-phenylmethyl-4′-aza-5′-oxo-5′-[2″-methyl-3″-N-(methylsulfonyl)amino-phenyl)]pentyl] decahydroisoguinoline-3-N-t-butylcarboxamide [Example 36] | 1.87 µg/mL and 2.3 µg/mL | –
CC(C)(C)NC(=O)C1CC2CCCCC2CN1CC(O)C(Cc1ccccc1)NC(=O)c1cccc(O)c1F (stereo not drawn) [Example 1, [3S-(3R*,4aR*,8aR*,2′S*,3′R*)]-2-[2′-Hydroxy-3′-phenylmethyl-4′-aza-5′-oxo-5′-(2″-fluoro-3″-hydroxyphenyl)pentyl]decahydroisoquinoline-3-N-t-butylcarboxamide] | 1.5 µg/mL | 1310 ng/mL (≈ 2.43 µM)

Source: patent US20030216569A1, “Method of making HIV protease inhibitors” (priority 1993, published 2003)
